In patent US5612208A, “Ascorbate oxidase, gene encoding the same, process for producing the same, and reagent composition using the same” (Amano Pharmaceutical Co., Ltd., priority 1994, dated 1997):
Like-named read-outs stand apart in the source and are kept apart here.

Columns and labels:
[1] = system: L-ascorbate oxidase (ASOD) of Eupenicillium brefeldianum APC-9315, purified native enzyme; assay type: biochemical
Experimental: The relative residual activity of ASOD after incubation with various inhibitors at 37° C. for 2 hours.
(§1) To 0.1 ml of a sample to be assayed is added 0.5 ml of 10 mM Na2 HPO4 and 0.45 ml of 0.2M KH2 PO4 containing 1 mM EDTA, and the mixture is mixed and preincubated at 30° C. for 5 minutes. To the mixture is added 0.05 ml of a 10 mM substrate solution of L-ascorbic acid in 0,001N HCl containing 1 mM EDTA, followed by incubation at 30° C. for 10 minutes. The reaction is stopped by addition of 3.0 ml of 0.2N HCl, and a reduction in absorbance at 245 nm is measured. The amount of ASOD in the sample which decomposes 1 μmol of L-ascorbic acid per 1 minute is taken as one unit.

[2] = system: ascorbate oxidase of microorganism of the genus Trichoderma or Mortierella (JP-A-6-209770); conditions: data from JP-A-6-209770; read-out: Km (L-Ascorbate); cited from earlier work
[3] = system: ascorbate oxidase (ASO) from spores of Myrothecium verrucaria; conditions: data from Nihon Eiyo-Shokuryo Gakkaishi, 40, (1), 47-51 (1987); read-out: Km (L-Ascorbate); cited from earlier work
[4] = system: L-ascorbate oxidase (ASOD) of Eupenicillium brefeldianum APC-9315, purified native enzyme; assay: Michaelis constant (Km) for L-ascorbic acid, spectrophotometry method; assay type: biochemical; conditions: by the spectrophotometry method
Experimental: (8) Michaelis Constant (Km) for L-Ascorbic Acid
4.9×10^-4 M (by the spectrophotometry method)
as §1

[5] = system: ascorbate oxidase of microorganism of the genus Trichoderma or Mortierella (JP-A-6-209770); conditions: data from JP-A-6-209770; cited from earlier work
[6] = system: ascorbate oxidase (ASO) from spores of Myrothecium verrucaria; conditions: data from Nihon Eiyo-Shokuryo Gakkaishi, 40, (1), 47-51 (1987); cited from earlier work
[7] = target: T1, ascorbate oxidase (ASO) of cucumber (Cucumis sativus, UniProt P14133); conditions: data from J. Biochem., 64 189 (1968); cited from earlier work
T1 construct: cucumbers (T. Nakamura, N. Makino and Y. Ogura, J. Biochem., Vol. 64, p. 189 (1968)); host or cells: enzyme isolated from cucumbers
T1 sequence (P14133 34-587): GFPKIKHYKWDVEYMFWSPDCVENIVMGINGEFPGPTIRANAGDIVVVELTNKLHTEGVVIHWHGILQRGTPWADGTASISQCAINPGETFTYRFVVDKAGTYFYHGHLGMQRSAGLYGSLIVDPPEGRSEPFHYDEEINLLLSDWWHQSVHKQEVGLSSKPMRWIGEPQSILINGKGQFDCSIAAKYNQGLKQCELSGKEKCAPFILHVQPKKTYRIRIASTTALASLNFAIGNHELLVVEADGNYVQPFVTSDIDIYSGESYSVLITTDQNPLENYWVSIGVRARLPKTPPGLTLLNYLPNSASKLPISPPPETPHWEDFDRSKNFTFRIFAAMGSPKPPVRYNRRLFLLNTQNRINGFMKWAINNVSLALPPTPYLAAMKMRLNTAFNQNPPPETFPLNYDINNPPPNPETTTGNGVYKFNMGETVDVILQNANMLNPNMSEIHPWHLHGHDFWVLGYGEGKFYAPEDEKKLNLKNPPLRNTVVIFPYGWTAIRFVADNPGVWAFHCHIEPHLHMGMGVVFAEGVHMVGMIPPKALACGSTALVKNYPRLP

[8] = system: ascorbate oxidase (ASO) of Acremonium sp. HI-25; conditions: data from Biosci. Biotechnol. Biochem., 56 (6), 847-852 (1992) & JP-A-3-236766; cited from earlier work
[9] = incubation with inhibitor at 37° C. for 2 hours, inhibitor concentration not printed

Q: Which “Inhibition by inhibitor (relative residual activity), in words” value [1, 9] does the source give for O[C@H](CS)[C@H](O)CS (racemic) [dithiothreitol] here?
A: The value was “not substantially inhibited”.

Q: What does the source list for O=C1O[C@H]([C@@H](O)CO)C(O)=C1O [L-Ascorbic Acid, L-ascorbic acid]?
A: Km [2]: 700 µM; Km [3]: 3000 µM; Km [4]: 490 µM

Q: Which results are given for O=C(O)CI [monoiodoacetic acid]?
A: Inhibition by inhibitor, in words [5]: uninhibited; Inhibition by inhibitor [1]: 50%; Inhibition by inhibitor (relative residual activity), in words [1]: inhibited partially

Q: Which results are given for [N-]=[N+]=[N-] [sodium azide]?
A: Inhibition by inhibitor, in words [6]: uninhibited; Inhibition by inhibitor, in words [7]: inhibited; Inhibition by inhibitor, in words [8]: inhibited; Inhibition by inhibitor (relative residual activity), in words [1, 9]: not substantially inhibited; Inhibition by inhibitor (relative residual activity), in words ([1]; incubation with inhibitor at 37° C. for 2 hours, inhibitor concentration not printed, listed as Sodium Azide): uninhibited
